Results reported in US10065950B2, “Substituted thiazoles as HIV integrase inhibitors” (Japan Tobacco Inc., priority 2010, dated 2018).

Target: HIV-1 pNL4-3 integrase (Human immunodeficiency virus type 1 group M subtype B (isolate NY5) (HIV-1), UniProt P12497)
Assay: Determination of enzyme (HIV integrase) inhibitory activity
Format: biochemical
Settings: calculated from inhibition rate (fluorescence)
Method in brief: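 Full-length pNL4-3 integrase from E. coli (0.75 μM stock) reacted 60 min at 37° C with compound and biotinylated donor DNA bound to streptavidin plates, in MOPS buffer with 5 mM MgCl2 and 10% DMSO. Digoxigenin-labelled target DNA (25 nM stock) then added for 20 min; strand transfer read by peroxidase anti-digoxigenin fluorescence (Ex 325/Em 420 nm).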

| Compound | IC50 |
| --- | --- |
| CC[C@@H]1Cn2cc(-c3ncc(Cc4ccc(F)cc4)s3)c(=O)c(O)c2C(=O)N1CC [Example 327] | 5.9 nM |
| COC[C@H]1CN(C2CCC2)C(=O)c2c(O)c(=O)c(-c3nnc(Cc4ccc(F)cc4)s3)cn21 [Example 92] | 8.7 nM |
| CC(C)N1C(=O)c2c(O)c(=O)c(-c3nnc(Cc4ccc(F)cc4F)s3)cn2C[C@H]1CO [Example 133] | 7.4 nM |
| CCOC[C@H]1CN(C(C)(C)C)C(=O)c2c(O)c(=O)c(-c3nnc(Cc4ccc(F)cc4)s3)cn21 [Example 361] | 15 nM |
| CC(C)N1C[C@@](C)(C(=O)N2CCC2)n2cc(-c3ncc(Cc4ccc(F)cc4)s3)c(=O)c(O)c2C1=O [Example 223] | 12 nM |
| CC(C)N1C(=O)c2c(O)c(=O)c(-c3nnc(Cc4ccc(F)cc4F)s3)cn2CC1CC#N (stereo not shown) [Example 82] | 4.9 nM |
| CC(C)N1C(=O)c2c(O)c(=O)c(-c3nnc(Cc4ccc(F)cc4F)s3)cn2CC1C(=O)N(C)C (stereo not shown) [Example 53] | 10 nM |
| CC(C)N1C[C@](C)(C(=O)N2CCC2)n2cc(-c3ncc(Cc4ccc(F)cc4)s3)c(=O)c(O)c2C1=O [Example 236] | 13 nM |
| CC(C)NC(=O)C1(C)CN(C(C)C)C(=O)c2c(O)c(=O)c(-c3ncc(Cc4ccc(F)cc4)s3)cn21 (stereo not shown) [Example 106] | 20 nM |
| CCN1C[C@@H](COCCOC)n2cc(-c3nnc(Cc4ccc(F)cc4)s3)c(=O)c(O)c2C1=O [Example 128] | 19 nM |
| CC(C)N1CC(C)(C(=O)N(C)C)n2cc(-c3ncc(Cc4ccc(F)cc4)s3)c(=O)c(O)c2C1=O (stereo not shown) [Example 107] | 19 nM |
| CC(C)N1CC(C)(C(=O)O)n2cc(-c3ncc(Cc4ccc(F)cc4F)s3)c(=O)c(O)c2C1=O (stereo not shown) [Example 24] | 23 nM |
| CCN1C[C@](C)(C(=O)N2CC(OC)C2)n2cc(-c3ncc(Cc4ccc(F)cc4)s3)c(=O)c(O)c2C1=O [Example 263] | 9 nM |
| CCN1C[C@@H](COC)n2cc(-c3nnc(Cc4ccc(F)cc4F)s3)c(=O)c(O)c2C1=O [Example 89] | 8 nM |
| COC[C@@H]1Cn2cc(-c3nnc(Cc4ccc(F)cc4)s3)c(=O)c(O)c2C(=O)N1C1CCCC1 [Example 196] | 6.7 nM |
| COCCOC[C@@H]1Cn2cc(-c3nnc(Cc4ccc(F)cc4)s3)c(=O)c(O)c2C(=O)N1C1CCC1 [Example 84] | 11 nM |
| CCC(C)(C)C(=O)N(C)C[C@@H]1Cn2cc(-c3nnc(Cc4ccc(F)cc4)s3)c(=O)c(O)c2C(=O)N1C(C)C [Example 183] | 10 nM |
| CCN(C)C(=O)CC1CN(C(C)C)C(=O)c2c(O)c(=O)c(-c3ncc(Cc4ccc(F)cc4F)s3)cn21 (stereo not shown) [Example 76] | 8.3 nM |
| CNC(=O)CC1CN(C(C)C)C(=O)c2c(O)c(=O)c(-c3ncc(Cc4ccc(F)cc4F)s3)cn21 (stereo not shown) [Example 34] | 8.2 nM |
| CC(C)N1C[C@](C)(C(=O)N2CCOCC2)n2cc(-c3nnc(Cc4ccc(F)cc4)s3)c(=O)c(O)c2C1=O [Example 203] | 13 nM |
| CC(C)N1C(=O)c2c(O)c(=O)c(-c3nnc(Cc4ccc(F)cc4F)s3)cn2CC1CC(=O)O (stereo not shown) [Example 74] | 5.7 nM |
| CO[C@@H](C)COC[C@H]1CN(C2CC2)C(=O)c2c(O)c(=O)c(-c3nnc(Cc4ccc(F)cc4)s3)cn21 [Example 384] | 12 nM |
| CCN1C(=O)c2c(O)c(=O)c(-c3nnc(Cc4ccc(F)cc4)s3)cn2C[C@@H]1C(C)C [Example 287] | 8 nM |
| CO[C@@H](C)[C@H]1CN(C(C)C)C(=O)c2c(O)c(=O)c(-c3ncc(Cc4ccc(F)cc4)s3)cn21 [Example 388] | 8.6 nM |
| CC(C)C(=O)NCC1CN(C(C)C)C(=O)c2c(O)c(=O)c(-c3ncc(Cc4ccc(F)cc4F)s3)cn21 (stereo not shown) [Example 69] | 13 nM |
| CC(C)(C)N1C[C@](C)(C(=O)N2CCCC2)n2cc(-c3nnc(Cc4ccc(F)cc4)s3)c(=O)c(O)c2C1=O [Example 188] | 18 nM |
| CC(C)N1C(=O)c2c(O)c(=O)c(-c3nnc(Cc4ccc(F)cc4F)s3)cn2C[C@H]1CN(C)S(C)(=O)=O [Example 154] | 7.3 nM |
| CC(=O)NC[C@@H]1Cn2cc(-c3nnc(Cc4ccc(F)cc4F)s3)c(=O)c(O)c2C(=O)N1C(C)C [Example 137] | 8.6 nM |
